ChEMBL document CHEMBL4765344, “Expanding the anticancer potential of 1,2,3-triazoles via simultaneously targeting Cyclooxygenase-2, 15-lipoxygenase and tumor-associated carbonic anhydrases” (Eur J Med Chem, 2020)
Active and inactive are the calls of the source. No cut-off for these calls is given here.

Key:
[1] = molecular target: Carbonic anhydrase 2 (Homo sapiens, UniProt P00918); assay: Inhibition of human CA2 by stopped-flow carbon dioxide hydration assay
[2] = molecular target: T1, Prostaglandin G/H synthase 1 (Ovis aries, UniProt P05979); assay: Inhibition of ovine COX1 by colorimetric analysis
T1 sequence (P05979 whole entry): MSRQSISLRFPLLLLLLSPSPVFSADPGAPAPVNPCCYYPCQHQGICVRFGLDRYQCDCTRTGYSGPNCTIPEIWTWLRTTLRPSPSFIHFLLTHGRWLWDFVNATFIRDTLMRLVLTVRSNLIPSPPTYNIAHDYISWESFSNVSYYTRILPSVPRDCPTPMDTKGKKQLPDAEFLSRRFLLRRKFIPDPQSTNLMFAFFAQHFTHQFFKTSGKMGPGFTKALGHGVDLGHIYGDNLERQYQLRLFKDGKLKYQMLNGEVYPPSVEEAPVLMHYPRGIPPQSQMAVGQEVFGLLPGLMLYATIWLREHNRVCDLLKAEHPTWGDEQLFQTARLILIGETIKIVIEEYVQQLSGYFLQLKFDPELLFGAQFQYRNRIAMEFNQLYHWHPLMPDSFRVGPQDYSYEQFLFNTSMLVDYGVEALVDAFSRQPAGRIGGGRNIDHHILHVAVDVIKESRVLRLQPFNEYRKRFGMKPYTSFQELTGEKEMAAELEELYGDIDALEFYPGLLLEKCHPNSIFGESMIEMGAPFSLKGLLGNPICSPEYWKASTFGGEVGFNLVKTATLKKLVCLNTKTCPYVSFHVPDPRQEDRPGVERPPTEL

[3] = molecular target: Carbonic anhydrase 1 (Homo sapiens, UniProt P00915); assay: Inhibition of human CA1 by stopped-flow carbon dioxide hydration assay
Sequence of Carbonic anhydrase 1 (P00915 whole entry): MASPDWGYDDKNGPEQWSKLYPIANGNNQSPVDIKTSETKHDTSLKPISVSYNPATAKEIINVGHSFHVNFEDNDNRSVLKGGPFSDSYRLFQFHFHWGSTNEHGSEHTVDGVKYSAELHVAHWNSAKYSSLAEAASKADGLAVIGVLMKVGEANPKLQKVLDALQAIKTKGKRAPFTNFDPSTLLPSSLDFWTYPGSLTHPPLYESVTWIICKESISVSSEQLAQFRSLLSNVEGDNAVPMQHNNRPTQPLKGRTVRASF

[4] = molecular target: Carbonic anhydrase 12 (Homo sapiens, UniProt O43570); assay: Inhibition of human CA12 by stopped-flow carbon dioxide hydration assay
Sequence of Carbonic anhydrase 12 (O43570 whole entry): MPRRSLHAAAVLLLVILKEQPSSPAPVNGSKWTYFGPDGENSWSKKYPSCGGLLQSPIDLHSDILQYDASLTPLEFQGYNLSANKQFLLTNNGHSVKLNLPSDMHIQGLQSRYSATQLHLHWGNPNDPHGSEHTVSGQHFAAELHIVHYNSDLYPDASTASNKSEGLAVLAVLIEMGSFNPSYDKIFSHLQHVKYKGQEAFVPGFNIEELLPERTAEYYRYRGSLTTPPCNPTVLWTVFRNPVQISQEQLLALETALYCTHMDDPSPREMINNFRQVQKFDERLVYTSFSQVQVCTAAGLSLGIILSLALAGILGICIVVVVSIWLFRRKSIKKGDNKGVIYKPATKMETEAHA

[5] = tested on: A549; assay: Antiproliferative activity against human A549 cells assessed as inhibition of cell growth at 100 microM measured after 72 hrs by SRB assay; assay type: functional
[6] = tested on: MCF7; assay: Antiproliferative activity against human MCF-7 cells assessed as inhibition of cell growth at 100 microM measured after 72 hrs by SRB assay; assay type: functional
[7] = molecular target: Carbonic anhydrase 9 (Homo sapiens, UniProt Q16790); assay: Inhibition of human CA9 by stopped-flow carbon dioxide hydration assay
[8] = Inhibition of soya bean 15-LOX; set-up: species or system Glycine max
[9] = tested on: WI-38; assay: Cytotoxicity against human WI-38 cells assessed as reduction in cell viability after 72 hrs by SRB assay; assay type: cell-based; details: WI-38, 72 h
[10] = tested on: HepG2; assay: Antiproliferative activity against human HepG2 cells assessed as inhibition of cell growth at 100 microM measured after 72 hrs by SRB assay; assay type: functional
[11] = tested on: HepG2; assay: Antiproliferative activity against human HepG2 cells assessed as cell growth inhibition measured after 72 hrs by SRB assay; assay type: functional, cell-based; details: HepG2, 72 h
[12] = tested on: A549; assay: Antiproliferative activity against human A549 cells assessed as cell growth inhibition measured after 72 hrs by SRB assay; assay type: functional, cell-based; details: A549, 72 h
[13] = tested on: MCF7; assay: Antiproliferative activity against human MCF-7 cells assessed as cell growth inhibition measured after 72 hrs by SRB assay; assay type: functional, cell-based; details: MCF7, 72 h

| Ki [1] [µM] | IC50 [2] [µM] | Ki [3] [µM] | Ki [4] [µM] | Ki [7] [µM] | IC50 [8] [µM] | IC50 [11] [µM] | IC50 [12] [µM] | IC50 [13] [µM] | Compound | inhibition [5] | inhibition at 100 µM [6] [%] | IC50 [9] [µM] | inhibition at 100 µM [10] [%] | inhibition [10] | inhibition at 100 µM [5] [%] |
| --- | --- | --- | --- | --- | --- | --- | --- | --- | --- | --- | --- | --- | --- | --- | --- |
| 0.0079 | 7.6 | 0.073 | 0.0826 | 9.12 | 3.65 | – | – | – | CC(=O)c1nnn(-c2ccc(S(N)(=O)=O)cc2)c1C | inactive | 17.7 | 391 | 3.61 | – | – |
| – | 11.6 | > 100 | > 100 | > 100 | 1.65 | – | – | – | C/C(=N\NC(N)=S)c1nnn(-c2ccc(C(=O)O)cc2)c1C | inactive | 46.6 | 480 | – | inactive | – |
| – | 6.9 | – | – | – | 4.51 | – | – | – | C/C(=N\NC(N)=O)c1nnn(-c2ccc(C(=O)O)cc2)c1C | – | – | – | – | – | – |
| – | 8.4 | – | – | – | 4.72 | – | – | – | C/C(=N\NC(N)=O)c1nnn(-c2ccc(F)cc2)c1C | – | – | – | – | – | – |
| – | 10.3 | > 100 | > 100 | > 100 | 1.69 | – | – | – | C/C(=N\NC(N)=S)c1nnn(-c2ccc(S(=O)(=O)Nc3nccs3)cc2)c1C | – | 20.7 | 458 | 22.1 | – | 11.3 |
| – | 13 | 0.0835 | 0.0153 | 7.27 | 1.51 | – | – | – | C/C(=N\NC(N)=S)c1nnn(-c2ccc(S(N)(=O)=O)cc2)c1C | – | 36.1 | 378 | – | inactive | 3.88 |

Continued, compound first:

| Compound | Ki [1] [µM] | IC50 [2] [µM] | Ki [3] [µM] | Ki [4] [µM] | Ki [7] [µM] | IC50 [8] [µM] | IC50 [11] [µM] | IC50 [12] [µM] | IC50 [13] [µM] | inhibition [5] | inhibition at 100 µM [6] [%] | IC50 [9] [µM] | inhibition at 100 µM [10] [%] | inhibition [10] | inhibition at 100 µM [5] [%] |
| --- | --- | --- | --- | --- | --- | --- | --- | --- | --- | --- | --- | --- | --- | --- | --- |
| Cc1c(-c2nn(-c3ccccc3)cc2/C=N/O)nnn1-c1ccc(S(N)(=O)=O)cc1 | 7.71 | 13.9 | 18.3 | > 100 | > 100 | 1.91 | – | – | – | inactive | 43.5 | 450 | 12.5 | – | – |
| Cc1c(-c2nn(-c3ccccc3)cc2/C=N/O)nnn1-c1ccc(Cl)cc1 | > 100 | 12.9 | > 100 | > 100 | > 100 | 1.47 | 26.5 | 55.7 | 22 | – | 97.8 | 402 | 79 | – | 69.7 |
| CC(=O)c1nnn(-c2ccc(S(=O)(=O)Nc3nccs3)cc2)c1C | – | 5.8 | 51 | > 100 | > 100 | 4.72 | – | – | – | – | – | – | – | – | – |
| CC(=O)c1nnn(-c2ccc(Cl)cc2)c1C | – | 7.9 | – | – | – | 3.65 | – | – | – | – | – | – | – | – | – |
| CC(=O)c1nnn(-c2ccc(F)cc2)c1C | – | 7.3 | – | – | – | 4.75 | – | – | – | – | – | – | – | – | – |
| C/C(=N\Nc1nc(-c2ccc(Cl)cc2)cs1)c1nnn(-c2ccc(S(=O)(=O)Nc3nccs3)cc2)c1C | > 100 | 14.2 | > 100 | > 100 | > 100 | 1.19 | 89.5 | 99.3 | – | – | 39.9 | 468 | 56 | – | 51.1 |
| C/C(=N\NC(N)=O)c1nnn(-c2ccc(S(=O)(=O)Nc3nccs3)cc2)c1C | 6.86 | 7.9 | 46.3 | > 100 | > 100 | 6.52 | – | – | – | – | – | – | – | – | – |
